# Measurements as given in patent US12509431B2, “1,4-dihydroquinazolinone compounds and uses thereof” (Edgewise Therapeutics, Inc., priority 2022, dated 2025).
# Where two headings read alike, the source gives them in different places.
# Key:
# [1] = system: isoflurane-anesthetized SD rats; test: In vivo echocardiography of systolic cardiac performance (FS, SWT, HR, LV volumes) after a single oral dose; details: Rattus norvegicus, single dose 10 mg/kg PO, ~2 hrs post-dosing, vs. vehicle
# Experimental: Experiments were performed to evaluate the in vivo ability of the compounds of the disclosure to modulate systolic cardiac performance. Non-invasively echocardiography was used to assess cardiac indicators in isoflurane-anesthetized SD rats. A set of conscious rats were treated with either vehicle control (0 mg/kg PO; n=78) or a single dose of an test compound (10 mg/kg PO, n=2 to 6/compound) via oral gavage. Cardiac function/geometry were recorded at two separate time-points/days: once prior to dosing (i.e., at baseline, day −2) and at ˜2 hrs post-dosing (day 0).
# In these experiments, heart rate (HR), echocardiography-derived indices of left-ventricular systolic performance, as well as dimensions/volumes were measured using a high-frequency transducer and parastemnal long-axis transthoracic views (Vevo3100, VisualSonic). LV fractional shortening (FS), an index of systolic function, was defined as the end-diastole normalized change in internal dimensions divided by the […] (LVid) of the left ventricle between end-systole (LVids) and end-diastole (LVidd) (i.e., FS=100·[LVidd−LVids]/LVidd). LV volumes were derived using the Teichholz formula (LVV=7·LVid^3/[2.4+LVid]). In addition, a systolic wall-thickening index (SWT) was also evaluated. SWT is defined as the relative ratio (end-diastole normalized) of left-ventricular (anterior and posterior) wall-thickness change during systole; i.e., SWT=I{[(anterior LV wall thickness in systole−anterior LV wall thickness in diastole)][…][(posterior LV wall thickness in systole−posterior LV wall thickness in diastole)]}/{2*diastolic thickness}. In all cases, blood samples were taken (via either tail-vein micro-sampling or cardiac-puncture) at the time of each echocardiographic examination in order to establish pharmacokinetic (PK)/pharmacodynamics (PD) relationships.
# [2] = system: Porcine Atria myofibrils; test: Myofibril ATPase assay (PK/LDH NADH-coupled), atria myofibrils; type: biochemical
# Procedure, shortened: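 Porcine atrial myofibril ATPase followed via PK/LDH-coupled NADH depletion, absorbance at 340 nm read every 1.5-2 min over 75 min. Slopes (mAU/min) normalized to vehicle as 100% and fit to a 4-parameter logistic; EC25% derived, plus EC50% for inhibitors.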
# [3] = system: Rabbit Skeletal myofibrils (rabbit psoas muscle); test: Myofibril ATPase assay (PK/LDH NADH-coupled), skeletal myofibrils; type: biochemical
# Procedure, shortened: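 Rabbit psoas myofibrils in pCa (PIPES/CaCl2/EGTA, pH 7.0) buffer; ADP coupled via PK/LDH to NADH loss, read at 340 nm every 1.5–2 min for 75 min. Slopes normalized to vehicle (100%) and fit to 4-parameter logistic for EC25, plus EC50 for inhibitors.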
# [4] = EDV (LV volume, Teichholz formula), read-out: EDV % vs. VEH
# [5] = LV fractional shortening, read-out: FS % vs. VEH
# [6] = heart rate, read-out: HR % vs. VEH
# [7] = systolic wall-thickening index, read-out: SWT % vs. VEH
SMILES,"change in vivo at 10 mg/kg [1, 4] [%]","change in vivo at 10 mg/kg [1, 5] [%]","change in vivo at 10 mg/kg [1, 6] [%]","change in vivo at 10 mg/kg [1, 7] [%]",Porcine Atria IC25 ([2]; Table 8) [nM],Rabbit Psoas IC25 ([3]; Table 8) [nM],Porcine Atria IC25 ([2]; Table 7) [nM],Rabbit Psoas IC25 ([3]; Table 7) [nM]
"N#Cc1cnc2c(c1)OCC2NC(=O)CN1Cc2c(ccc(F)c2F)NC1=O (single isomer, unassigned) [Compound B65]",22,-61,22,-53,60,19.1,–,–
"CC(NC(=O)CN1Cc2cc(F)ccc2NC1=O)c1ccc(C#N)cc1F (single isomer, unassigned) [Compound B206]",29,-67,7,-57,30,11.29,–,–
"C[C@@H](NC(=O)CN1Cc2c(ccc(F)c2F)NC1=O)c1ncc(C#N)cc1F [Compound B141, (R)—N-(1-(5-cyano-3-fluoropyridin-2-yl)ethyl)-2-(5,6-difluoro-2-oxo-1,4-dihydroquinazolin-3(2H)-yl)acetamide]",-3,-15,13,-19,130,422.8,–,–
O=C(CN1Cc2cc(F)ccc2NC1=O)N[C@@H]1COc2cc(F)cc(F)c21 [Compound B145],11,-42,7,-39,20,11.6,–,–
O=C(CN1Cc2c(ccc(F)c2F)NC1=O)N[C@@H]1COc2cc(F)cc(F)c21 [Compound B147],10,-35,10,-37,50,16.23,–,–
C[C@H](NC(=O)CN1Cc2c(ccc(F)c2F)NC1=O)c1ccc(C#N)cc1F [Compound B189],19,-13,-5,-29,30,18.79,–,–
C[C@H](NC(=O)CN1Cc2c(ccc(F)c2F)NC1=O)c1ncc(F)cc1F [Compound B191],9,-59,17,-59,40,20.19,–,–
C[C@H](NC(=O)CN1Cc2cc(F)ccc2NC1=O)c1ncc(C#N)cc1F [Compound B199],11,-54,22,-55,90,39.4,–,–
"C[C@H](NC(=O)CN1Cc2cc(F)ccc2NC1=O)c1ccc(F)cc1F [Compound B247, N-[(1S)-1-(2,4-Difluorophenyl)ethyl]-2-(6-fluoro-2-oxo-1,4-dihydroquinazolin-3-yl)acetamide]",7,-31,7,-35,60,32.05,–,–
O=C(CN1C(=O)Nc2cccnc2C12CC2)N[C@@H]1COc2cc(F)cc(F)c21 [Compound N33],2,-10,6,-5,–,–,80,19.37
